# Data reported in US20230287389A1, “A METHOD FOR GENERATING NEW MUTATION IN ORGANISM AND USE THEREOF” (Qingdao Kingagroot Chemical Compound Co., Ltd., priority 2019, published 2023).
# How the values were obtained:
# [1] = test system: T1 generation OsACCase2 W2038L edited seedlings; assay: Resistance test of T1 generation OsACCase2 W2038L edited seedlings to ACCase inhibitor herbicides; type: in vivo, Oryza sativa; conditions: for Resistance of OsACCase2 W2038L mutant strain: field concentrations
# Experimental: After the propagation of the TO strain containing the W2038L mutation, the T1 generation mutant seedlings were tested for herbicide resistance with quizalofop-p and haloxyfop-p in field concentrations.
# [2] = test system: T1 generation OsALS W548 site and OsSWEET14 double-site edited seedlings; assay: Resistance test of T1 generation OsALS W548L edited seedlings to ALS inhibitor herbicides; type: in vivo, Oryza sativa; conditions: for Resistance of OsALS W548L mutant strain: field concentrations
# Experimental: After the propagation of TO strains in which the occurrence of OsALS W548L mutation was detected, the T1 generation mutant seedling strains were tested for herbicide resistance with pyroxsulam, imazapic, nicosulfuron and flucarbazone-Na at field concentrations.
# [3] = test system: Arabidopsis thaliana; assay: Selection of Arabidopsis thaliana seedlings on imazapic medium; type: in vivo
# Experimental: After the seeds of the T1 strain were harvested from single plant, the seeds of different strains of two vectors were selected and spread on the imazapic selection medium (MS medium+0.24 μg/mL imazapic) to perform selection, and the positive seedlings were transplanted to the soil one week later and subjected to molecular detection, in which the method was the same as step 5.
structure (smiles),measurement,setting,value
C[C@@H](Oc1ccc(Oc2ncc(C(F)(F)F)cc2Cl)cc1)C(=O)O [Haloxyfop-p],Resistance of W2038L edited strains QY367-7-12 and QY367-7-18,[1]; 5 g/mu active ingredient of Haloxyfop-p,developed resistance
same,Resistance of OsACCase2 W2038L mutant strain,[1],significantly resistant
COc1nn(C(=O)[N-]S(=O)(=O)c2ccccc2OC(F)(F)F)c(=O)n1C.[Na+] [flucarbazone-Na],Resistance of W548L edited strain QY360-7-9,[2]; 2 g/mu active ingredient of flucarbazone-Na,developed resistance
same,Resistance of OsALS W548L mutant strain,[2],significant resistance
Cc1cnc(C2=NC(=O)C(C)(C(C)C)N2)c(C(=O)O)c1 (stereo not drawn) [imazapic],Response of W574M edited T1 plant to imazapic treatment,[3]; Example 3,showed resistance
same,Growth of wild-type Col-0 on imazapic resistant medium,[3]; MS medium + 0.24 μg/mL imazapic,could not grow
same,Growth of positive plants of the mutant strains on imazapic resistant medium,"[3]; MS medium + 0.24 μg/mL imazapic, T2",could grow normally
same,Resistance of W548L edited strain QY360-7-11,[2]; 7 g/mu active ingredient of imazapic,developed resistance
same,Resistance of OsALS W548L mutant strain,[2],significant resistance
COc1cc(OC)nc(NC(=O)NS(=O)(=O)c2ncccc2C(=O)N(C)C)n1 [nicosulfuron],Resistance of W548L edited strain QY360-7-11,[2]; 4 g/mu active ingredient of nicosulfuron,developed resistance
same,Resistance of OsALS W548L mutant strain,[2],significant resistance
COc1cc(OC)n2nc(NS(=O)(=O)c3c(C(F)(F)F)ccnc3OC)nc2n1 [pyroxsulam],Resistance of W548L edited strains QY360-7-2 and QY360-7-11,[2]; 2 g/mu active ingredient of pyroxsulam,developed resistance
same,Resistance of OsALS W548L mutant strain,[2],significant resistance
C[C@@H](Oc1ccc(Oc2cnc3cc(Cl)ccc3n2)cc1)C(=O)O [quizalofop-p],Resistance of W2038L edited strains QY367-5-10 and QY367-5-21,[1]; 5 g/mu active ingredient of quizalofop-p,developed resistance
same,Resistance of OsACCase2 W2038L mutant strain,[1],significantly resistant
